Patent publication US5709816A, “Singlet oxygen quenchers and external compositions containing the same” (Kao Corporation, priority 1899, dated 1998)

Assays:
[1] = Quenching rate constant of singlet oxygen (Rose Bengal photosensitization, Stern-Volmer method); format: biochemical; conditions: for weakening of the 1,270 nm singlet oxygen emission peak with increasing quencher concentration: 50 μM ethanol solution of Rose Bengal, 490-590 nm irradiation
Text: Method for measuring the quenching rate constant of singlet oxygen:
The apparatus used for measuring singlet oxygen included the following parts.
(1) Light source: Xenon lamp (150 W) (Atago Bussan K.K.)
(2) Filters on the excitation side: Water filter (optical path: 50 mm), Color glass filters (HA-15, HA-30, G-533, manufactured by Hoya K.K.)
(3) Sample: Square quartz cell (2×10×50 mm)
(4) Filters on the detection side: Color glass filter (IR-85, manufactured by Hoya K.K.), Interference filter (Nippon Shinku-Kogaku K.K.)
(5) Spectrometer and detector: Spectrometer (HR-320, Jovin Yvon Co.), Germanium (Ge) detector (EO-817L, a type using liquid nitrogen as a coolant, North coast Scientic Corporation)
(6) Amplifier: Light chopper (5584, NF Co.), Frequency filter (E-3201B, NF Co.), Super low noise amplifier (SA-200F3, NF Co.), Digital storage oscilloscope (2431L, SONY Tektronix Co.)
(7) Recording section: Personal computer (PC-9801 BA, NEC Corporation), GP-IB interface
(8) Oxygen concentration control unit: High-pressure oxygen cylinder
Using this apparatus, light was irradiated onto a system which is known to produce singlet oxygen through photochemical sensitization. The wavelength of the light was within an appropriate absorption range of the photosensitizer employed. weak emission in the near infrared region, which is specific to singlet oxygen, was measured for its intensity I. Subsequently, the emission obtained when a test substance was added to the same system was measured. From the decrease in emission intensity I, the quenching rate constant of singlet oxygen of the test substance could be measured in accordance with the Stern-Volmer method. However, since some substances react with the photochemical sensitization system to cause errors in the measurements, the method described by R. H. Young et al., Photochem. Photobiol., vol. 17, p. 233 (1973) was applied to correct this contribution quenching.
A 50 μM ethanol solution of Rose Bengal in a 400 μl square quartz cell was used as a test substance.
First, the light within 490-590 nm, which is appropriate for the maximum absorption wavelength of Rose Bengal, was irradiated onto the cell containing the test substance.
Similarly, another system was subjected to measurement in which a typical singlet oxygen quencher, β-carotene, sodium azide,or 1,4-diazabicyclo[2.2.2]octane, had been added.
Measurement of the quenching rate constant of singlet oxygen: An ethanol solution of each of compounds obtained in the above-described Synthesis Examples and N-phenyldiethanolamine (compound (36)), with Rose Bengal, as a conventional photosensitizer, was used for the measurement of the quenching rate constants of singlet oxygen.
First, emission intensity I of a mixture solution containing 50 μM of Rose Bengal and the above compounds were measured under saturated air conditions. The ratio IOair /Iair was calculated, wherein Iair represents the emission intensity measured for a solution with a test substance at a concentration of Cq (Iair), and Oair represents the emission intensity measured for a solution without test substance. Next, under saturated oxygen conditions, emission intensity was measured for a solution with a test substance at the same concentration Cq (I302). Using these emission intensities, the correction term Fair was obtained in accordance with the following equation.
Interference attributed to the test substance with respect to the photosensitization reaction system was corrected by multiplying IOair /Iair by Fair.
Using the following equation:
(IOair /Iair)'=1+kq ·.tau.·Cq

[2] = tested on: skin of colored guinea pigs; assay: Inhibition of delayed darkening (UV-A/UV-B irradiation); format: in vivo; conditions: 7 wt. % in ethanol; UV-A/UV-B 50 J/cm^2; 14 days after irradiation; color difference meter
Description: Inhibition of delayed darkening
The hair of colored guinea pigs (8 week old, female) hair was removed, and an ethanol solution containing a test substance (7 wt. %) was applied to the skin. A mixture of UV- A/UV-B rays (50 J/cm^2, measured at 365 nm using a UV-radiometer UVR-305/365-D, Torex Co.) was irradiated onto the back of each guinea pig using a solar simulator. Fourteen days after irradiation, delayed darkening inhibition ratios were measured using a color difference meter (Model 1001P. Nippon Kogyo Co., Ltd.).

skin of hairless mice [3] = assay: Inhibition of wrinkle formation in hairless mice (visual wrinkle index); format: in vivo, hairless mouse (HR/ICR); conditions: 5 wt. % in ethanol, 80 μl; UV-B five times per week, sixteen weeks; scale 1 (no wrinkles) to 4; control (ethanol) 3.78 ± 0.08
Description: (1) Inhibition of wrinkle formation in hairless mice.
(§1) To each hairless mouse (HR/ICR, 6 weeks old when the test started), a test substance (5 wt. %, in ethanol) was applied. (80 μl). Approximately 10 minutes later, UV-B was irradiated thereto using 6 bulbs of health lamps (SL20-SLE, Toshiba) so that the dose per irradiation was not greater than 1 MED. Irradiation was repeated five times per week over sixteen weeks. While the irradiation energy was measured using a UV-radiometer (UVR-305/S65D, Tokyo Optical K.K.) so that the dose per irradiation was not greater than 1 MED, energy was irradiated at an intensity of 0.28 mW/cm^2, with the total dose. 100 mJ/cm^2. As a control, a case where only ethanol was applied was similarly tested in a manner performed on the test substances.
After completion of the testing, the level of wrinkle formation was visually determined using the following standards (wrinkle indices).
1: No wrinkles are formed
2: Small amounts of wrinkles are formed
3: Moderate amounts of wrinkles are formed
4: Considerable amounts of wrinkles are formed

skin of hairless mice [4] = assay: Analysis of wrinkles in hairless mice (image analysis of skin replicas); format: in vivo, hairless mouse (HR/ICR); conditions: 5 wt. % in ethanol, 80 μl; UV-B sixteen weeks; shadow area of skin replicas, 30°; control (ethanol) 6.46 ± 0.68
Description: as §1
In order to analyze the wrinkles formed in the above step (1) in detail, replicas of different skin areas (3 replicas per mouse) each having a round shape with a diameter of 1 cm were obtained using a hydrophilic exaflex, hydrophilic vinyl silicone imaging agent. Each replica was placed horizontally and lightened from an angle of 30°. The area of shadows formed by wrinkles was analyzed as the area ratio using an image analyzing apparatus.

[5] = tested on: dopachrome formation from dopa; assay: Inhibition of immediate pigment darkening (dopachrome formation from dopa, porphyrin + UV); format: biochemical; conditions: 0.5 wt. % in ethanol; dopa 1 mM, porphyrin 5 mM; UV-A/UV-B 3 J/cm^2; absorption at 475 nm
Description: Inhibition of immediate pigment darkening
An ethanol solution containing a test substance (0.5 wt. %) was added to a mixture of dopa (1 mM) and porphyrin (5 mM). A mixture of UV-A/UV-B (3 J/cm^2, measured at 365 nm) was irradiated onto the resultant mixture using a solar simulator. The amount of dopachrome formed by irradiation was determined by measuring absorption at 475 nm.

collagen = assay: Inhibition of protein denaturation (collagen crosslinking, porphyrin + UV); format: biochemical; conditions: 0.1 wt. % in ethanol; collagen 0.5 mg/ml, porphyrin 100 mM; UV-A/UV-B 3 J/cm^2; SDS-PAGE
Description: Inhibition of protein denaturation
An ethanol solution containing a test substance (0.1 wt. %) was added to a mixture of collagen (0.5 mg/ml) and 2 porphyrin (100 mM). A mixture of UV-A/UV-B (3 J/cm^2, measured at 365 nm) was irradiated onto the resultant mixture using a solar simulator. The irradiated mixture was applied to SDS-PAGE electrophoresis, and collagen crosslinking inhibition ratios were measured.

[6] = tested on: cultured human fibroblasts; assay: Inhibition of lipid peroxide formation in cultured human fibroblasts (TBA method); format: cell-based; conditions: 0.01 wt. % in ethanol, 100 mM porphyrin; for inhibition at 0.01 wt%: Homo sapiens, Fibroblast, light or radiation study, UV-A/UV-B 1 J/cm^2, read-out: Inhibition ratio regarding lipid peroxide formation
Description: Inhibition of lipid peroxide formation
Cultured human fibroblasts were combined with 100 mM porphyrin and a test substance (0.01 wt. %, in ethanol). A mixture of UV-A/UV-B rays (1 J/cm^2, measurements performed at 365 nm) was irradiated onto the resultant cell culture using a solar simulator. The fibroblasts were collected after the trypsin treatment, then extracted hydrophobic substances using acetone. The extracted substances were dried under nitrogen to prepare cellular lipid samples. A TBA method was used to measure lipid peroxides in cells and inhibition ratio by a test substance.

[7] = tested on: E. coli vector pUC119 DNA; format: biochemical; conditions: 0.01 wt. % in ethanol; 100 mM porphyrin; UV-A/UV-B 3 J/cm^2; agarose gel electrophoresis
Description: To a mixture of […] E. coli vector pUC119 DNA and 100 mM porphyrin, an ethanol solution containing a test substance (0.01 wt. %) was added. A mixture of UV-A/UV-B (3 J/cm^2, measured at 365 nm) was irradiated onto the resultant DNA mixture using a solar simulator. A 2.5-fold amount of ethanol and a 0.1-fold amount of 5M sodium acetate were added and the DNA was precipitated. The DNA pellet was dissolved in a TE buffer, and analyzed through agarose gel electrophoresis. Inhibition of DNA single strand breaks formation was measured.

skin of ICR/HR mice = assay: Inhibition of wrinkle formation in the skin of mice (UV-B, 16 weeks); format: in vivo, ICR/HR mouse; conditions: 1 wt. % in ethanol, 1 MED UV-B five times per week over sixteen weeks; for inhibition in vivo at 1 %: Mus musculus, topical, 2688 h
Text: Inhibition of wrinkle formation in the skin of mice
To the back of each ICR/HR mouse (female, 6 weeks old), an ethanol solution containing a test substance (1 wt. %) was applied. One (1) MED of UV-B was irradiated thereto using a health lamp SL20-SLE (Toshiba). Irradiation was repeated five times per week over sixteen weeks. Wrinkle formation was visually scored using the following five rankings.
1: Mild and questionable wrinkles are observed
2: Mild but clear and definite wrinkles are observed
3: Moderate wrinkles are observed
4: Severe wrinkles are observed
Using the above rankings, wrinkle formations were scored and the inhibition ratios were determined by the division by the blank score.

[8] = tested on: sunburn cells in skin of ICR/HR mice; assay: Inhibition of sunburn cell formation (UV-B irradiation); format: in vivo; conditions: 1 wt. % in ethanol, UV-B 100 mJ/cm^2, 24 hours later; for inhibition in vivo at 1 %: Mus musculus, light or radiation study, topical, read-out: Inhibition ratio regarding sunburn cell formation
Text: Inhibition of sunburn cell formation
Ethanol solution of a test substance (1 wt. %) was applied onto the skin of ICR/HR mice. UV-B (100 mJ/cm^2) was irradiated onto the skin (health lamp SE20/SLE, Toshiba). Twenty-four hours later, the skin was biopsied and stained using hematoxylin & eosin, after which the number of sunburn cells were counted under microscope.

[9] = tested on: skin of white guinea pigs; assay: Inhibition of erythema formation (UV-A/UV-B irradiation); format: in vivo; conditions: Cavia porcellus, light or radiation study, topical; 5 wt. % in ethanol; UV-A/UV-B 40 J/cm^2; determined after 1 day and 2 days; read-out: Erythema inhibition rate
Text: Inhibition of erythema formation
The hair of white guinea pigs (8 weeks old, female) hair was removed by shaving, and an ethanol solution containing a test substance (5 wt. %) was applied to the shaved part of each animal. A mixture of UV-A/UV-B (40 J/cm^2, measured at 365 nm using a UV-radiometer UVR-305/365-D, Torex Co.) was irradiated onto the back of each guinea pig using a solar simulator Model 1600 (Solar Light Co.). After 1 day and 2 days of irradiation, the erythema formation was visually determined by the standards of the Japanese Dermatological Association to obtain erythema inhibition ratios.

Row | Compound | weakening of the 1,270 nm singlet oxygen emission peak with increasing quencher concentration [1] | ΔΔL value [2] | Inhibition ratio regarding immediate blackening [5] | Protein denaturation inhibition ratio (collagen) | Prevention of DNA damage [7] | inhibition at 0.01 wt% [6] | further results
1 | C1CN2CCN1CC2 [1,4-diazabicyclo[2.2.2]octane, reference compound] | the peak at 1,270 nm weakened |  |  |  |  |  | 
2 | Oc1ccc(O)cc1 [Comparative compound (3), Hydroquinone, reference compound] |  | 0.7 |  |  |  |  | 
3 | Cc1ccc(CN(Cc2ccc(C)o2)c2ccccc2C)o1 [Compound (30), N,N-bis(5-methylfurfuryl)-2-methylphenylamine] |  |  |  |  |  |  | Wrinkle index (skin of hairless mice [3]): 2.51 ± 0.43; Area ratio of image analysis (skin of hairless mice [4]): 3.39 ± 0.47%
4 | CC1=C(/C=C/C(C)=C/C=C/C(C)=C/C=C/C=C(C)/C=C/C=C(C)/C=C/C2=C(C)CCCC2(C)C)C(C)(C)CCC1 [β-carotene, reference compound] | the peak at 1,270 nm weakened |  |  |  |  |  | 
5 | [N-]=[N+]=[N-].[Na+] [Comparative compound (4), Sodium azide, reference compound] | the peak at 1,270 nm weakened |  | 48% | 45% | 53% |  | Inhibition ratio regarding lipid peroxide formation ([6]; UV-A/UV-B 1 J/cm^2): 37; Inhibition of wrinkle formation (skin of ICR/HR mice): 28%
6 | Cc1c(C)c2c(c(C)c1O)CCC(C)(CCCC(C)CCCC(C)CCCC(C)C)O2 (stereo not drawn) [Comparative compound (6), α-Tocopherol, reference compound] |  |  |  | 30% | 34% | 42% | inhibition in vivo at 1 % (skin of ICR/HR mice): 34%
7 | O=C1O[C@H]([C@@H](O)CO)C(O)=C1O [Comparative compound (5), Ascorbic acid, reference compound] |  |  | 42% |  | 21% | 43% | inhibition in vivo at 1 % (skin of ICR/HR mice): 11%
8 | [Cl][Cd][Cl] [Comparative compound (2), Cadmium chloride, reference compound] |  |  |  |  |  |  | Inhibition ratio regarding sunburn cell formation [8]: 67%
9 | COC(=O)C=Cc1ccc(OC)cc1 [Comparative compound (1), Methyl p-methoxycinnamate, reference compound] |  | 0.9 |  |  |  |  | inhibition in vivo at 5 % [9]: 31%; inhibition in vivo at 1 % [8]: 37%
10 | OCCN(CCO)c1ccccc1 [Compound (36), N-phenyldiethanolamine] |  | 1.2 | 64% | 69% | 58% | 46% | Extinction rate constant of singlet oxygen ([1]; kq, ethanol solution, 50 μM Rose Bengal, singlet oxygen lifetime taken as 10 μs): 5.8e+07 M⁻¹ s⁻¹; inhibition in vivo at 5 % [9]: 48%; inhibition in vivo at 1 % [8]: 62%
